Drawing on patent US10202389B2, “Pyrazolopyrimidinyl inhibitors of ubiquitin-activating enzyme” (Millennium Pharmaceuticals, Inc., priority 2012, dated 2019), this text covers inhibition for 25 compounds.

Usually inhibition stands for how much of the control response was suppressed.

One test addresses mouse UAE (Mus musculus (Mouse), UniProt Q02053). Description: Ubiquitin Activating Enzyme (UAE) HTRF Assay. To be noted: read-out: % inhibition @0.111 μM. A general note: In TR-FRET formats the signal depends on donor and acceptor labels being close together.
In a further test the target is recombinant human UAE (Homo sapiens (Human), UniProt P22314). Put plainly: Ubiquitin Activating Enzyme (UAE) HTRF Assay. To be noted: read-out: % inhibition @0.111 μM.
Chain of recombinant human UAE (P22314 whole entry): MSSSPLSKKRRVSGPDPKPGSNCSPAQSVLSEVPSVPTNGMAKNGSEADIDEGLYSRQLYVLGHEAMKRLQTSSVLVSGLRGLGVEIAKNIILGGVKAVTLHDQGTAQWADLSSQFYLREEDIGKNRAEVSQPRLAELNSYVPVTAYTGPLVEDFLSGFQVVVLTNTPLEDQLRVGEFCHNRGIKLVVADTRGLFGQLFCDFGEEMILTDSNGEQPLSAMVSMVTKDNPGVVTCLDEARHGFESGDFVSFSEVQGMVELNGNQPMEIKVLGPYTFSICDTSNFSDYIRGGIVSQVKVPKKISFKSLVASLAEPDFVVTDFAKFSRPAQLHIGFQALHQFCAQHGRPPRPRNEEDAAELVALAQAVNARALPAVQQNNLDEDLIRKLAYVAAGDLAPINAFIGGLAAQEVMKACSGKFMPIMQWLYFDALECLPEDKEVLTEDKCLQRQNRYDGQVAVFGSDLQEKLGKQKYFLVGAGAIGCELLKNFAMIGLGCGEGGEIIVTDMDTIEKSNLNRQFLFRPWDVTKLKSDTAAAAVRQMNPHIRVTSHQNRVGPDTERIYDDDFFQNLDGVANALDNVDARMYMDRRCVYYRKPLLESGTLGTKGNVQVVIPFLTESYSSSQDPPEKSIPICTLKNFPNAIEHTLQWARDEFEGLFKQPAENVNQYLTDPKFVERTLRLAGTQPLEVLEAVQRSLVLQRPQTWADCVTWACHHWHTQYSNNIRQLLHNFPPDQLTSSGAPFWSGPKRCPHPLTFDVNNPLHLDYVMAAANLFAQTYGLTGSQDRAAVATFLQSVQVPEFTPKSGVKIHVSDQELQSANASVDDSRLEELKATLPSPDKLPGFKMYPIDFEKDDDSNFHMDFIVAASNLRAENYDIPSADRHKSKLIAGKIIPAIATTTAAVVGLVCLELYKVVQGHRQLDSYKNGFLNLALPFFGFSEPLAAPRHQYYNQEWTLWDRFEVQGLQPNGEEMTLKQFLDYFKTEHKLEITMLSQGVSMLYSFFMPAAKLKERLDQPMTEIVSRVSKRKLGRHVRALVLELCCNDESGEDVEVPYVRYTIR

Chain of mouse UAE (Q02053 whole entry): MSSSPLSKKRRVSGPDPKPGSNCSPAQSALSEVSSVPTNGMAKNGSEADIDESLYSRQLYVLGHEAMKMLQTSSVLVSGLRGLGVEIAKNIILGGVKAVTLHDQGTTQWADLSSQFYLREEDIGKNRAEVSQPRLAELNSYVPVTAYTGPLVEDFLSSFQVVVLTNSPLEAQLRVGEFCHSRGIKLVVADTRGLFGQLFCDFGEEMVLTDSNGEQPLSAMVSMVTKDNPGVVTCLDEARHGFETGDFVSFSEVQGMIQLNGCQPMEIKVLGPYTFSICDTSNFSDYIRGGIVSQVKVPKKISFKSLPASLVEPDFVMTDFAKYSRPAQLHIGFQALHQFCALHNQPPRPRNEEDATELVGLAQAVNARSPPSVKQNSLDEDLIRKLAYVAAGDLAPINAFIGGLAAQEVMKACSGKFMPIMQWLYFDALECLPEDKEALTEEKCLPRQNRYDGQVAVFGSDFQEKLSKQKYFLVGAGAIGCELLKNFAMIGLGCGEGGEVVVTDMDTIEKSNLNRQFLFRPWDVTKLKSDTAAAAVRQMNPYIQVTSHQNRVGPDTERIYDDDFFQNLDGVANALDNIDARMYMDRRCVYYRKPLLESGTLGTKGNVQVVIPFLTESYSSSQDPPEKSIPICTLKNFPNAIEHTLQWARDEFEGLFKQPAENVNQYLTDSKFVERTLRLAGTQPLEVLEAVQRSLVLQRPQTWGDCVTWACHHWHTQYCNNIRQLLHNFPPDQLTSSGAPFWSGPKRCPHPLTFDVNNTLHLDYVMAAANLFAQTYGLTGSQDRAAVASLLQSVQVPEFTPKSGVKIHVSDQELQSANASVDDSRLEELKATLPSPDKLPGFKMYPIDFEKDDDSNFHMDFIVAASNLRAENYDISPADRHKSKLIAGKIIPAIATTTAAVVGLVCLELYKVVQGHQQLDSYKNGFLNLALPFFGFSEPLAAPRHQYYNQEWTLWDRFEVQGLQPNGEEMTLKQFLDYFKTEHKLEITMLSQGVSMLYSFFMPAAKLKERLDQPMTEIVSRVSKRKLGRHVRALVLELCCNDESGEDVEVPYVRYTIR
Protocol for mouse UAE: (§1) After incubation for 120 minutes, quantification of the FRET is performed on the Pherostar (BMG).
(§2) For compounds whose values are marked with an asterisk (*), mouse UAE was used. For all other compounds, human UAE was used.
Protocol for recombinant human UAE: as §1, §2

Turning to `NS(=O)(=O)OC[C@H]1C[C@@H](Nc2ccnc3cc(-c4ccccc4)nn23)[C@H](O)[C@@H]1O` (relative stereo) [Compound I-001, (rac)-((1R,2R,3S,4R)-2,3-dihydroxy-4-(2-phenylpyrazolo[1,5-a]pyrimidin-7-ylamino)cyclopentyl)methyl rel-sulfamate], the inhibition at 0.111 µM at mouse UAE amounted to 72%.

`NS(=O)(=O)OC[C@H]1C[C@@H](Nc2ccnc3cc(-c4cccc5ccccc45)nn23)[C@H](O)[C@@H]1O` (relative stereo) [Compound I-002, (rac)-((1R,2R,3S,4R)-2,3-dihydroxy-4-{[2-(1-naphthyl)pyrazolo[1,5-a]pyrimidin-7-yl]amino}cyclopentyl)methyl rel-sulfamate]: the inhibition at 0.111 µM at mouse UAE turned out to be 100%.

`NS(=O)(=O)OC[C@H]1C[C@@H](Nc2ccnc3cc(-c4cccc(Cl)c4)nn23)[C@H](O)[C@@H]1O` (relative stereo) [Compound I-005, (rac)-((1R,2R,3S,4R)-4-((2-(3-Chlorophenyl)pyrazolo[1,5-a]pyrimidin-7-yl)amino)-2,3-dihydroxycyclopentyl)methyl rel-sulfamate]: the inhibition at 0.111 µM at mouse UAE is 100%.

With `Cn1cc(-c2cccc(-c3cc4nccc(N[C@@H]5C[C@H](COS(N)(=O)=O)[C@@H](O)[C@H]5O)n4n3)c2)cn1` (relative stereo) [Compound I-122, (rac)-[(1R,2R,3S,4R)-2,3-dihydroxy-4-({2-[3-(1-methyl-1H-pyrazol-4-yl)phenyl]pyrazolo[1,5-a]pyrimidin-7-yl}amino)cyclopentyl]methyl rel-sulfamate], at recombinant human UAE, the inhibition at 0.111 µM is 97%.

For the compound `CC(CO)(CCl)c1cccc(-c2cc3nccc(N[C@@H]4C[C@H](COS(N)(=O)=O)[C@@H](O)[C@H]4O)n3n2)c1` (relative stereo) [Compound I-123, (rac)-{(1R,2R,3S,4R)-4-[(2-{3-[2-chloro-1-(hydroxymethyl)-1-methylethyl]phenyl}pyrazolo[1,5-a]pyrimidin-7-yl)amino]-2,3-dihydroxycyclopentyl}methyl rel-sulfamate], the inhibition at 0.111 µM at recombinant human UAE was 100%.

Take `NS(=O)(=O)OC[C@H]1C[C@@H](Nc2ccnc3cc(-c4cccc5ccccc45)nn23)[C@H](O)[C@@H]1O` [Compound I-098, (s.e.)-((1R,2R,3S,4R)-2,3-dihydroxy-4-{[2-(1-naphthyl)pyrazolo[1,5-a]pyrimidin-7-yl]amino}cyclopentyl)methyl sulfamate]: at recombinant human UAE, the inhibition at 0.111 µM came to 100%.

Take `NS(=O)(=O)OC[C@H]1C[C@@H](Nc2ccnc3cc(-c4cccc(SC(F)(F)F)c4)nn23)[C@H](O)[C@@H]1O` [Compound I-101, (s.e.)-((1R,2R,3S,4R)-2,3-dihydroxy-4-(2-(3-(trifluoromethylthio)phenyl)pyrazolo[1,5-a]pyrimidin-7-ylamino)cyclopentyl)methyl sulfamate]: the inhibition at 0.111 µM on recombinant human UAE came to 99%.

For `COc1ccc(OC(F)(F)F)cc1-c1cc2nccc(N[C@@H]3C[C@H](COS(N)(=O)=O)[C@@H](O)[C@H]3O)n2n1` [Compound I-102, (s.e)-[(1R,2R,3S,4R)-2,3-dihydroxy-4-({2-[2-methoxy-5-(trifluoromethoxy)-phenyl]pyrazolo[1,5-a]pyrimidin-7-yl}amino)cyclopentyl]methyl sulfamate], at recombinant human UAE, the inhibition at 0.111 µM was 100%.

As to `NS(=O)(=O)OC[C@H]1C[C@@H](Nc2ccnc3cc(-c4cccc5c4oc4ccccc45)nn23)[C@H](O)[C@@H]1O` [Compound I-103, (s.e.)-((1R,2R,3S,4R)-4-(2-(dibenzo[b,d]furan-4-yl)pyrazolo[1,5-a]pyrimidin-7-ylamino)-2,3-dihydroxycyclopentyl)methyl sulfamate], the inhibition at 0.111 µM at recombinant human UAE was 100%.

In the case of `COc1ccc2ccccc2c1-c1cc2nccc(N[C@@H]3C[C@H](COS(N)(=O)=O)[C@@H](O)[C@H]3O)n2n1` [Compound I-104, (s.e.)-((1R,2R,3S,4R)-2,3-dihydroxy-4-(2-(2-methoxynaphthalen-1-yl)pyrazolo[1,5-a]pyrimidin-7-ylamino)cyclopentyl)methyl sulfamate], the inhibition at 0.111 µM at recombinant human UAE worked out at 100%.

As for `COc1ccc(-c2cc3nccc(N[C@@H]4C[C@H](COS(N)(=O)=O)[C@@H](O)[C@H]4O)n3n2)c2ccccc12` [Compound I-106, (s.e.)-((1R,2R,3S,4R)-2,3-dihydroxy-4-(2-(4-methoxynaphthalen-1-yl)pyrazolo[1,5-a]pyrimidin-7-ylamino)cyclopentyl)methyl sulfamate], the inhibition at 0.111 µM at recombinant human UAE was 100%.

As for `CN(C)c1ccc(-c2cc3nccc(N[C@@H]4C[C@H](COS(N)(=O)=O)[C@@H](O)[C@H]4O)n3n2)c2ccccc12` [Compound I-107, (s.e.)-((1R,2R,3S,4R)-4-(2-(4-(dimethylamino)naphthalen-1-yl)pyrazolo[1,5-a]pyrimidin-7-ylamino)-2,3-dihydroxycyclopentyl)methyl sulfamate], the inhibition at 0.111 µM at recombinant human UAE is 100%.

As to `NS(=O)(=O)OC[C@H]1C[C@@H](Nc2ccnc3cc(-c4ccc(Cl)c5ccccc45)nn23)[C@H](O)[C@@H]1O` [Compound I-108, (s.e.)-[(1R,2R,3S,4R)-4-{[2-(4-chloro-1-naphthyl)pyrazolo[1,5-a]pyrimidin-7-yl]amino}-2,3-dihydroxycyclopentyl]methyl sulfamate], the inhibition at 0.111 µM on recombinant human UAE stood at 100%.

In the case of `CC(C)Oc1ccc2ccccc2c1-c1cc2nccc(N[C@@H]3C[C@H](COS(N)(=O)=O)[C@@H](O)[C@H]3O)n2n1` [Compound I-109, (s.e.)-((1R,2R,3S,4R)-2,3-dihydroxy-4-(2-(2-isopropoxynaphthalen-1-yl)pyrazolo[1,5-a]pyrimidin-7-ylamino)cyclopentyl)methyl sulfamate], the inhibition at 0.111 µM at recombinant human UAE came to 100%.

Consider `NS(=O)(=O)OC[C@H]1C[C@@H](Nc2ccnc3cc(-c4c(OC(F)F)ccc5ccccc45)nn23)[C@H](O)[C@@H]1O` [Compound I-110, (s.e.)-((1R,2R,3S,4R)-4-(2-(2-(difluoromethoxy)naphthalen-1-yl)pyrazolo[1,5-a]pyrimidin-7-ylamino)-2,3-dihydroxycyclopentyl)methyl sulfamate], for which the inhibition at 0.111 µM on recombinant human UAE came out at 100%.

Take `NS(=O)(=O)OC[C@H]1C[C@@H](Nc2ccnc3cc(-c4cccc5cc(C(F)F)ccc45)nn23)[C@H](O)[C@@H]1O` [Compound I-111, (s.e.)-((1R,2R,3S,4R)-4-(2-(6-(difluoromethyl)naphthalen-1-yl)pyrazolo[1,5-a]pyrimidin-7-ylamino)-2,3-dihydroxycyclopentyl)methyl sulfamate]: the inhibition at 0.111 µM on recombinant human UAE was found to be 100%.

`NS(=O)(=O)OC[C@H]1C[C@@H](Nc2ccnc3cc(-c4ccc(OC(F)F)c5ccccc45)nn23)[C@H](O)[C@@H]1O` [Compound I-112, (s.e.)-((1R,2R,3S,4R)-4-(2-(4-(difluoromethoxy)naphthalen-1-yl)pyrazolo[1,5-a]pyrimidin-7-ylamino)-2,3-dihydroxycyclopentyl)methyl sulfamate]: on recombinant human UAE, the inhibition at 0.111 µM came out at 100%.

Turning to `NS(=O)(=O)OC[C@H]1C[C@@H](Nc2ccnc3cc(-c4ccc5cc(F)ccc5c4)nn23)[C@H](O)[C@@H]1O` [Compound I-113, (s.e.)-((1R,2R,3S,4R)-4-(2-(6-fluoronaphthalen-2-yl)pyrazolo[1,5-a]pyrimidin-7-ylamino)-2,3-dihydroxycyclopentyl)methyl sulfamate], the inhibition at 0.111 µM at recombinant human UAE came to 100%.

Consider `Cc1ccc2ccccc2c1-c1cc2nccc(N[C@@H]3C[C@H](COS(N)(=O)=O)[C@@H](O)[C@H]3O)n2n1` [Compound I-114, (s.e.)-((1R,2R,3S,4R)-2,3-dihydroxy-4-(2-(2-methylnaphthalen-1-yl)pyrazolo[1,5-a]pyrimidin-7-ylamino)cyclopentyl)methyl sulfamate], for which the inhibition at 0.111 µM at recombinant human UAE was 99%.

With `Cc1ccc(-c2cc3nccc(N[C@@H]4C[C@H](COS(N)(=O)=O)[C@@H](O)[C@H]4O)n3n2)c2ccccc12` [Compound I-115, (s.e.)-((1R,2R,3S,4R)-2,3-dihydroxy-4-(2-(4-methylnaphthalen-1-yl)pyrazolo[1,5-a]pyrimidin-7-ylamino)cyclopentyl)methyl sulfamate], at recombinant human UAE, the inhibition at 0.111 µM came to 100%.

As to `NS(=O)(=O)OC[C@H]1C[C@@H](Nc2ccnc3cc(-c4c(Cl)cc(Cl)c5ccccc45)nn23)[C@H](O)[C@@H]1O` [Compound I-117, (s.e.)-((1R,2R,3S,4R)-4-(2-(2,4-dichloronaphthalen-1-yl)pyrazolo[1,5-a]pyrimidin-7-ylamino)-2,3-dihydroxycyclopentyl)methyl sulfamate], the inhibition at 0.111 µM at recombinant human UAE was determined as 92%.

In the case of `NS(=O)(=O)OC[C@H]1C[C@@H](Nc2ccnc3cc(-c4cc(F)c5ccccc5c4)nn23)[C@H](O)[C@@H]1O` [Compound I-118, (s.e.)-((1R,2R,3S,4R)-4-(2-(4-fluoronaphthalen-2-yl)pyrazolo[1,5-a]pyrimidin-7-ylamino)-2,3-dihydroxycyclopentyl)methyl sulfamate], the inhibition at 0.111 µM on recombinant human UAE turned out to be 100%.

With `COc1ccc(SC(F)(F)F)cc1-c1cc2nccc(N[C@@H]3C[C@H](COS(N)(=O)=O)[C@@H](O)[C@H]3O)n2n1` [Compound I-120, (s.e.)-((1R,2R,3S,4R)-2,3-dihydroxy-4-(2-(2-methoxy-5-(trifluoromethylthio)-phenyl)pyrazolo[1,5-a]pyrimidin-7-ylamino)cyclopentyl)methyl sulfamate], the inhibition at 0.111 µM on recombinant human UAE is 100%.

`NS(=O)(=O)OC[C@H]1C[C@@H](Nc2c(Cl)cnc3c(Cl)c(-c4cccc(SC(F)(F)F)c4)nn23)[C@H](O)[C@@H]1O` [Compound I-124, (s.e.)-{(1R,2R,3S,4R)-4-[(3,6-dichloro-2-{3-[(trifluoromethyl)sulfanyl]phenyl}pyrazolo[1,5-a]pyrimidin-7-yl)amino]-2,3-dihydroxycyclopentyl}methyl sulfamate]: the inhibition at 0.111 µM at recombinant human UAE was determined as 20%.

In the case of `NS(=O)(=O)OC[C@H]1C[C@@H](Nc2c(Cl)cnc3cc(-c4cccc(SC(F)(F)F)c4)nn23)[C@H](O)[C@@H]1O` [Compound I-125, (s.e.)-{(1R,2R,3S,4R)-4-[(6-chloro-2-{3-[(trifluoromethyl)sulfanyl]phenyl}pyrazolo[1,5-a]pyrimidin-7-yl)amino]-2,3-dihydroxycyclopentyl}methyl sulfamate], on recombinant human UAE, the inhibition at 0.111 µM came to 50%.
